Measurements reported in US6506937B2, “Substituted benzenesulfonylureas and -thioureas-processes for their preparation and their use as pharmaceuticals” (priority 1993, dated 2003).

How the values were obtained:
[1] = test system: papillary muscle of the guineapig; test: Action potential duration on the papillary muscle of the guineapig; assay type: cell-based; settings: test substance 2.2×10^−5 mol per liter, 30 minutes after the addition, repolarization degree of 95%; for APD95-HOE 234: action potential shortened by 1 μM potassium channel opener Hoe 234 (rilmakalim); for APD95-DEO: action potential shortened by 2-deoxyglucose (DEO)
Excerpt: (1) Action potential duration on the papillary muscle of the guineapig:
ATP deficiency states such as are observed during ischemia in the cardiac muscle cell lead to a shortening of the duration of action potential. They are one of the causes of so-called reentry arrhythmias, which can cause sudden cardiac death. Opening of ATP-sensitive K channels by the reduction in ATP is a cause of this.
A standard microelectrode technique is used for measurement of the action potential. For this, guineapigs of both sexes are sacrificed by a blow to the head, the hearts are removed and the papillary muscles are separated out and suspended in an organ bath. The organ bath is flushed with Ringer solution (0.9% NaCl, 0.048% KCl, 0.024% CaCl2, 0.02% NaHCO3 and 0.1% glucose) and gassed with a mixture of 95% oxygen and 5% carbon dioxide at a temperature of 36° C. The muscle is stimulated via an electrode with rectangular pulses of 1 V and 1 ms duration and a frequency of 2 Hz. The action potential is conducted and recorded through a glass microelectrode, which is punctured intracellularly and filled with 3 mol KCl solution. The substances to be tested were added to the Ringer solution in a concentration of 2.2×10^−5 mol per liter. The action potential is shown in amplified form on an oscilloscope using a Hugo Sachs amplifier. The duration of the action potential is determined at a repolarization degree of 95% (APD95). Shortenings in action potential are caused either by addition of a 1 μM strength solution of the potassium channel opener Hoe 234 (rilmakalim) [W. Linz, E. Klaus, U. Albus, R. H. A. Becker, D. Mania, H. C. Englert, B. A. Schölkens Arzneimittelforechung/Drug Research, Volume 42 (II), 1992, pages 1180-1185] or by addition of 2-deoxyglucose (DEO). ATP deficiency states are caused in experimental physiology by 2-deoxyglucose by blockade of glucose meta-bolism. The action potential-shortening effect of these substances was prevented or reduced by the simultaneous dose of the test substances. The test substances were added to the bath solution as stock solutions in propanediol. The values stated relate to measurements 30 minutes after the addition. The APD95 in the presence of DEO or HOE 234 and in the absence of the test substance serves an a control.

RINm5F cells = test: Membrane potential on isolated β cells (RINm5F cells, whole cell patch clamp); assay type: cell-based; settings: compound 10^−5 mol per liter, diazoxide (100 μmol) in bath, 34±1° C.
Excerpt: (2) Membrane potential on isolated β cells:
The action mechanism of hypoglycemic sulfonylureas is clarified in rough outlines. The β cells of the pancreas are the target organ, where increased secretion of the hypoglycemic hormone insulin occurs. The release of insulin is controlled by the cell membrane potential. Glibenclamide causes depolarization of the cell membrane, which promotes insulin release via an increased in-flow of calcium ions. The extent of this depolarization of the call membrane ΔU was determined on RINm5F cells, a pancreas tumor cell line, for some of the compounds according to the invention. The action strength of a compound in this model predicts the extent of the hypoglycemic potential of this compound.
RINm5F cells were cultured at 37° C. in RPMI 1640 culture medium (flow), to which […] of glucose, 10% (volume/volume) of fetal calf serum, 2 mmol of glutamine and 50 μg/ml of gentamycin were added. For the studies, the cells were isolated by incubation (about 3 minutes) in a Ca^2+-free medium containing 0.25% of trypsin and stored on ice.
Isolated RINm5F cells were introduced into a Plexi-glas chamber on an inverse microscope fitted with a differential interference contrast lens. A fire-polished micropipette with an opening diameter of about 1 μm was placed on the cell with the aid of a micromanipulator under optical control (400-fold magnification). By applying a slight reduced pressure in the patch pipette, a high electrical seal was first produced between the glass and cell membrane, and was then broken open by increasing the reduced pressure of the membrane spot under the measurement pipette. The cell potential was recorded in this whole cell configuration with the aid of a patch clamp amplifier (L/M EPC 7) and was measured by applying a potential ramp to the whole cell current.
Solutions: The patch pipette was filled with KCl solution (in mmol): 140 KCl, 10 NaCl, 1.1 MgCl2, 0.5 EGTA, 1 Mg-ATP, 10 HEPES, pH=7.2, and the bath contained NaCl solution (in mmol): 140 NaCl, 4.7 KCl, 1.1 MgCl2, 2 CaCl2, 10 HEPES, pH=7.4. […]

SMILES | melting point [°C] | APD95-HOE 234 [1] | APD95-DEO [1] | ΔU (depolarization of the cell membrane) (RINm5F cells)
CNC(=S)NS(=O)(=O)c1cc(CCNC(=O)c2cc(Cl)ccc2OC)ccc1OC [Example 10, 2-Methoxy-5-chloro-N-{5-[1-sulfonylamino-N-(methylaminothiocarbonyl)-2-methoxyphenyl]-ethyl}-benzamide] |  | 137 ± 20 (150 ± 23) ms | 125 (175) ms | 11 (−79) n = 3 mv
CNC(=S)NS(=O)(=O)c1cc(CCNC(=O)c2cc(F)ccc2OC)ccc1OC | 182 to 185 |  |  | 
CNC(=O)NS(=O)(=O)c1cc(CCNC(=O)c2cc(Cl)ccc2OC)ccc1OC [Example 1, 2-Methoxy-5-chloro-N-{5-[1-sulfonylamino-N-(methylaminocarbonyl)-2-methoxyphenyl]-ethyl}-benzamide] |  | 138 ± 3 (160 ± 20) ms | 107 ± 14 (155 ± 9) ms | 13 (−76) n = 6 mv
CNC(=O)NS(=O)(=O)c1cc(CCNC(=O)c2cc(Cl)ccc2OC)ccc1C [Example 4, 2-Methoxy-5-chloro-N-{5-[1-sulfonylamino-N-(methylaminocarbonyl)-2-methylphenyl]-ethyl}-benzamide] |  | 123 ± 15 (172 ± 18) ms | 110 ± 23 (180 ± 5) ms | 19 (−76) n = 3 mv
CNC(=S)NS(=O)(=O)c1cc(CCNC(=O)c2cc(Cl)ccc2OC)ccc1C | 183 |  |  | 

More lines, main results first:

melting point [°C] | SMILES | APD95-HOE 234 [1] | APD95-DEO [1] | ΔU (depolarization of the cell membrane) (RINm5F cells)
199 to 200 | CNC(=O)NS(=O)(=O)c1cc(CCNC(=O)c2cc(F)ccc2OC)ccc1OC |  |  | 
285 | CNC(=O)NS(=O)(=O)c1cc(CCCNC(=O)c2cc(Cl)ccc2OC)ccc1OC |  |  | 
207 | CCc1ccc(CCNC(=O)c2cc(Cl)ccc2OC)cc1S(=O)(=O)NC(=O)NC |  |  | 
190 to 195 | CCOc1ccc(CCNC(=O)c2cc(Cl)ccc2OC)cc1S(=O)(=O)NC(=O)NC |  |  | 
155 | CCc1ccc(CCNC(=O)c2cc(Cl)ccc2OC)cc1S(=O)(=O)NC(=S)NC |  |  | 
